Source: article PMC8669712, “G Protein-Coupled Receptor GPR35 Suppresses Lipid Accumulation in Hepatocytes” (ACS Pharmacology & Translational Science, 2021)
“Also recorded” adds a separate entry of the source.

Legend:
[1] = test system: HepG2 cells; assay: Oil Red O staining of LXR (T0901317)-induced lipid accumulation in HepG2 cells; type: cell-based, human
Procedure: Human hepatocellular carcinoma HepG2 cells were grown in Minimum Essential Medium (MEM) supplemented with 10% fetal bovine serum (FBS), 2 mM L-glutamine, 1× non-essential amino acid, 1 mM sodium pyruvate, and 1× penicillin/streptomycin. Materials for cell culture were all from Sigma-Aldrich (St. Louis, MO) or Thermo Fisher Scientific (Waltham, MA). Cells were incubated in a humidified CO2 incubator at 37 °C. […] Cells were seeded onto a 12-well plate (1 × 10^5 cells/well) for 24 h prior to drug treatment. […] Lipid accumulation was measured by Oil Red O staining.

[2] = test system: GPR35 knock-out clones of HepG2 cells; assay: Oil Red O lipid accumulation in GPR35 knock-out clones of HepG2 cells; type: cell-based, human; settings: lodoxamide 1 × 10^–6 M or 1 × 10^–5 M
Procedure: Human hepatocellular carcinoma HepG2 cells were grown in Minimum Essential Medium (MEM) supplemented with 10% fetal bovine serum (FBS), 2 mM L-glutamine, 1× non-essential amino acid, 1 mM sodium pyruvate, and 1× penicillin/streptomycin. Materials for cell culture were all from Sigma-Aldrich (St. Louis, MO) or Thermo Fisher Scientific (Waltham, MA). Cells were incubated in a humidified CO2 incubator at 37 °C. Experiments were performed when cell confluence reached 80%. Cells were seeded onto a 12-well plate (1 × 10^5 cells/well) for 24 h prior to drug treatment. […] Expression of full-length mRNA from the GPR35 gene was eliminated using a dual synthetic gRNA/RNP approach[43] with one guide cutting the intron and one in the exon region to generate a nonfunctional GPR35 protein. The gRNAs were designed with the CRISPR Finder (Welcome Sanger Institute). […] Transfected cells were plated and analyzed for editing efficiency 24-48 h after electroporation. […] To further quantify and capture the genomic DNA deletion, PCR primers listed in Table S1 were designed to amplify the genomic DNA surrounding the target site. […] The amplified PCR products were subjected to paired-end sequencing using NextSeq500 from Illumina using paired-end chemistry with a 150-bp read length. […] The impedance was recorded using xCELLigence RTCA. […] Lipid accumulation was measured by Oil Red O staining.

[3] = test system: clone 27 HepG2 cells transfected with human GPR35a; assay: Cellular impedance in clone 27 cells transiently transfected with human GPR35a; type: cell-based; settings: lodoxamide 1 × 10^–8 M
Procedure: (§1) Briefly, CRISPR KO cells were transiently transfected 24 h with the human GPR35a expression vector using LipofectAMINE 3000 reagent, according to the manufacturer’s instructions. […] Alternatively, after 24 h transfection, cells were seeded onto a 12-well plate (1 × 10^5 cells/well) for 24 h at 37 °C. Then, cells were incubated with T0901317 and/or GPR35 agonists (in MEM containing 5% FBS) for 72 h. After the drug treatment, cells were stained with Oil Red O to examine the levels of lipid accumulation. Each experiment was repeated at least three times.
HepG2 cells were seeded onto xCELLigence E plates (2 × 10^4 cells/well) and incubated for 24 h at 37 °C. To evaluate GPR35 activation and its downstream G protein signaling, HepG2 cells or primary mouse hepatocytes were exposed to GPR35 antagonists or G protein inhibitors 1 h (overnight for Pertussis toxin) prior to GPR35 agonist stimulation. After the addition of GPR35 agonist or vehicle control, the impedance (represented as “cell index”) was recorded every 30 s over a 2 h period using xCELLigence RTCA (Agilent). Each experiment was repeated at least three times.

[4] = test system: GPR35a-reconstituted clone 27 HepG2 cells; assay: Oil Red O lipid accumulation in GPR35a-reconstituted clone 27 cells; type: cell-based, human; settings: clone 27, 72 h
Procedure: as §1
Lipid accumulation was measured by Oil Red O staining. A working solution of Oil Red O was prepared, as described with modification.[46] After drug treatment, cells were washed with PBS and fixed with formalin solution for 1 h at 4 °C. Then, cells were stained with Oil Red O working solution for 10 min at room temperature. After PBS washing, Oil Red O was extracted from cells using 150 μl of isopropanol and OD510 nm measured. […] These cells were then stained with Hoechst 33342 (1 μg/mL) and the fluorescence intensity of Hoechst (represents the DNA content in cells) was measured using a CLARIOstar plate reader (BMG LABTECH). Oil Red O accumulation was corrected for differences in DNA content and expressed as relative absorbency, taking the control condition (treated with vehicle only) as 1.

[5] = test system: hepatocytes from hGPR35a-HA-expressing mice; assay: Oil Red O lipid accumulation in hepatocytes from hGPR35a-HA-expressing mice; type: cell-based, mouse
Procedure: All mice were bred as WT or homozygous onto a C57BL/6N background. Animals were cared for in accordance with national guidelines on animal experimentation. All animal experiments were conducted under a home office license held by the authors. WT, humanized GPR35a, or KO male mice at 3–4 months of age were used in this study. These mice were fed ad libitum with a standard mouse chow diet. Briefly, mouse primary hepatocytes were isolated using a two-step collagenase perfusion technique.[45] Twelve-well plates or xCELLigence E plates were coated with rat tail collagen I solution (Thermo Fisher Scientific) overnight at 37 °C and washed with PBS. Isolated primary hepatocytes were seeded onto 12-well plates (8 × 10^4 cells/well) or xCELLigence E plates (2 × 10^4 cells/well) in Wiliam’s E medium (Thermo Fisher Scientific) supplemented with 10% fetal bovine serum (FBS) and 1× penicillin/streptomycin. Cells were maintained for 7 days with a fresh medium change every other day. […] Human GPR35 activation was examined using xCELLigence RTCA assay. To access the impact of GPR35 agonists on the lipid accumulation, WT and humanized GPR35 hepatocytes were incubated with T0901317 and/or GPR35 agonists/antagonists, as indicated (in DMEM medium containing 5% FBS and 1.5% BSA) for 48 h. Alternatively, GPR35 KO hepatocytes were incubated with drugs, as indicated for 5 days. In the T0901317 pretreatment model, human GPR35 hepatocytes were stimulated with T0901317 for 2 days and then further treated with lodoxamide for a further 3 days. After each drug treatment, hepatocytes were stained with Oil Red O and quantified as described. Each experiment was repeated at least three times.
Lipid accumulation was measured by Oil Red O staining. A working solution of Oil Red O was prepared, as described with modification.[46] After drug treatment, cells were washed with PBS and fixed with formalin solution for 1 h at 4 °C. Then, cells were stained with Oil Red O working solution for 10 min at room temperature. After PBS washing, Oil Red O was extracted from cells using 150 μl of isopropanol and OD510 nm measured. After the lipid extraction, cells were further soaked in PBS overnight at 4 °C. These cells were then stained with Hoechst 33342 (1 μg/mL) and the fluorescence intensity of Hoechst (represents the DNA content in cells) was measured using a CLARIOstar plate reader (BMG LABTECH). Oil Red O accumulation was corrected for differences in DNA content and expressed as relative absorbency, taking the control condition (treated with vehicle only) as 1.

N#Cc1cc(NC(=O)C(=O)O)c(Cl)c(NC(=O)C(=O)O)c1 [lodoxamide, 2-[2-chloro-5-cyano-3-(oxaloamino)anilino]-2-oxoacetic acid]
effect on basal lipid accumulation without co-addition of T0901317 ([1]; 1 × 10^–5 M): no significant effect
EC50 ([1]; Homo sapiens, co-incubation with T0901317 4 × 10^–6 M, 48 h, Oil Red O, read-out: EC50 for reduction in the lipid accumulation induced by T0901317): 0.095 µM
effect of T0901317 on lipid accumulation at maximally effective concentrations of lodoxamide ([1]; T0901317 4 × 10^–6 M, 48 h): fully suppressed
suppression of the effect of T0901317 on lipid accumulation in GPR35 knock-out clones [2]: unable to suppress the effect of T0901317
impedance signal in clone 27 cells transfected with human GPR35a [3]: stimulated signal
lipid accumulation induced by T0901317 in GPR35a-reconstituted cells [4]: again able to prevent the lipid accumulation
EC50 ([5]; Mus musculus, Hepatocyte, hepatocytes from hGPR35a-HA-expressing mice, co-addition with T0901317 8 × 10^–6 M, 48 h, read-out: EC50 for prevention of T0901317-induced lipid accumulation): 0.017 µM
reversal of pre-established lipid accumulation ([5]; T0901317 8 × 10^–6 M for 2 days, then lodoxamide added with continued T0901317): sufficient to reduce lipid levels to those observed in the absence of T0901317; also recorded: reduced to basal
potency in the reversal setting relative to co-addition ([5]; T0901317 pretreatment model): less potent than when added alongside T0901317
